{"source": "patent US6379697B1", "about": "“Stabilization of photosensitive materials” (The Secretary of State for Defence in Her Britannic …, priority 1994, dated 2002)", "assay": "Photodegradation of riboflavin preparations under UV irradiation (254/365 nm), first order kinetics", "type": "physicochemical", "details": "for half-life: aqueous solution of free riboflavin under UV irradiation", "procedure": "At time intervals a known amount of the solution or suspension was diluted with double distilled water and the absorbance or fluorescence measured.\nIn the case of the liposome suspensions liposomal pellets were produced, solubilised with a 10% solution of Triton-X-100 (RTM) and then diluted and measured. The entrapment and degradation of riboflavin was calculated from the absorbance readings at 444 nm, absorbance at this wavelength not interfering with the absorbance of Triton-X-100.\nThe photodegradation of riboflavin caused by UV irradiation follows first order kinetics and is given by the following equation: […]\nwhere C0 is the initial concentration of riboflavin, C is the concentration of riboflavin after t min of irradiation and k is the first order photodegradation rate constant.\nThe graphic representation of Equation (2) is linear and the slope of the line gives the photodegradation rate constant k.\nThe increase in stability was expressed by the stabilization ratio. (k0/k), where k0 is the photodegradation constant of free riboflavin in aqueous solution and k the photodegradation rate constant of the various preparations.\nRiboflavin gamma-cyclodextrin inclusion complexes were entrapped in DRV incorporating a light absorbing agent or antioxidant in their lipid phase selected from: oil Red 0, oxybenzone, deoxybenzone and beta-carotene or combinations thereof. […] As in the previous examples this degradation followed first order kinetics represented by the equations given earlier.\nIn order to determine the extent of this reduction and to determine whether during the photodegradation of riboflavin the same concentration of oil Red 0 caused different reductions in fluorescence, solutions containing known amounts of riboflavin and oil Red 0 solubilised in water using Triton-X-100 were prepared and their fluorescence measured.", "note": "Read-outs that look alike come from different tables or passages of the source."}
{"molecule": "Cc1cc2nc3c(=O)[nH]c(=O)nc-3n(C[C@H](O)[C@H](O)[C@H](O)CO)c2cc1C", "note": "[Riboflavin, riboflavin]", "values": [{"measurement": "half-life", "setting": "aqueous solution, irradiation, read-out: half life of riboflavin in aqueous solution on irradiation", "value": "~30", "unit": "min"}, {"measurement": "half-life", "setting": "free riboflavin, UV irradiation, read-out: half life of riboflavin", "value": 30, "unit": "min"}, {"measurement": "rate of decomposition of riboflavin in aqueous solution on irradiation", "setting": "aqueous solution, irradiation", "value": 0.024, "unit": "min⁻¹"}, {"measurement": "k × 10^3, rate constant for the photodegradation of riboflavin", "setting": "values are k × 10^3, UV lamp 254/365 nm, 3 cm, 24° C.", "value": "24(k °) min^−1"}]}
